Reference: patent US6506766B1 (Abbott Laboratories, priority 1998, dated 2003)

Assays:
[1] = biological target: T1, human glucocorticoid receptor-α [GRX] isoform (Homo sapiens, UniProt P04150); test: Radioligand binding with human glucocorticoid receptor cytosol ([3H]-dexamethasone competition); conditions: GRX cytosol expressed in insect SF21 cells, [3H]-Dex ~0.9 nM, 4° C. overnight; Ki by Cheng-Prusoff, KL ~[…]; read-out: Ki (nM) GR
T1 construct: host or cells: insect SF21 cells (baculovirus)
T1 sequence (P04150 1-777): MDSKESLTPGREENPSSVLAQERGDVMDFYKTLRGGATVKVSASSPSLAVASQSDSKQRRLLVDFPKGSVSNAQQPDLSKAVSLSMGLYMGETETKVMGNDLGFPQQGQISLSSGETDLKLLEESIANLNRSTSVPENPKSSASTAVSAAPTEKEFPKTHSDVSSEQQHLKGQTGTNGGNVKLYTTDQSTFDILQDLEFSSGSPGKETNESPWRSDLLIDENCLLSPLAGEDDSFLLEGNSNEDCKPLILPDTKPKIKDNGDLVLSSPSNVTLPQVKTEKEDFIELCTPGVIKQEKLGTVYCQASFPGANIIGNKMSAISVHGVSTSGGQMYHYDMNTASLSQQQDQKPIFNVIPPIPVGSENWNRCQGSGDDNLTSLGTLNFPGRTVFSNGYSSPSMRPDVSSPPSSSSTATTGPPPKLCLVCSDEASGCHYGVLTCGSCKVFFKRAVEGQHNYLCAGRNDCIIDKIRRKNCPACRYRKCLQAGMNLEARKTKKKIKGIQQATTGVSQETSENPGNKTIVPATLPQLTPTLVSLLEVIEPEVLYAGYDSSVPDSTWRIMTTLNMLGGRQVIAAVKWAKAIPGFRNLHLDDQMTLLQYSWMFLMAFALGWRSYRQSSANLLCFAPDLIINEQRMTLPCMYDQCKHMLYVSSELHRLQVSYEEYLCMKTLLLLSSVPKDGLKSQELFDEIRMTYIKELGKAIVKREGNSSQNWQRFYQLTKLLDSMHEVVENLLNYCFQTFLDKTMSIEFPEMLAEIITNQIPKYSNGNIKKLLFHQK

[2] = biological target: T2, human progesterone receptor-A [PRA] isoform (Homo sapiens, UniProt P06401); test: Radioligand binding with human progesterone receptor cytosol ([3H]-progesterone competition); conditions: PRA cytosol expressed in insect SF21 cells, [3H]Prog ~0.8 nM, 4° C. overnight; Ki by Cheng-Prusoff, KL ~4.5 nM; read-out: Ki (nM) PR
T2 construct: host or cells: insect SF21 cells (baculovirus)
T2 sequence (P06401 1-769 isoform P06401-2): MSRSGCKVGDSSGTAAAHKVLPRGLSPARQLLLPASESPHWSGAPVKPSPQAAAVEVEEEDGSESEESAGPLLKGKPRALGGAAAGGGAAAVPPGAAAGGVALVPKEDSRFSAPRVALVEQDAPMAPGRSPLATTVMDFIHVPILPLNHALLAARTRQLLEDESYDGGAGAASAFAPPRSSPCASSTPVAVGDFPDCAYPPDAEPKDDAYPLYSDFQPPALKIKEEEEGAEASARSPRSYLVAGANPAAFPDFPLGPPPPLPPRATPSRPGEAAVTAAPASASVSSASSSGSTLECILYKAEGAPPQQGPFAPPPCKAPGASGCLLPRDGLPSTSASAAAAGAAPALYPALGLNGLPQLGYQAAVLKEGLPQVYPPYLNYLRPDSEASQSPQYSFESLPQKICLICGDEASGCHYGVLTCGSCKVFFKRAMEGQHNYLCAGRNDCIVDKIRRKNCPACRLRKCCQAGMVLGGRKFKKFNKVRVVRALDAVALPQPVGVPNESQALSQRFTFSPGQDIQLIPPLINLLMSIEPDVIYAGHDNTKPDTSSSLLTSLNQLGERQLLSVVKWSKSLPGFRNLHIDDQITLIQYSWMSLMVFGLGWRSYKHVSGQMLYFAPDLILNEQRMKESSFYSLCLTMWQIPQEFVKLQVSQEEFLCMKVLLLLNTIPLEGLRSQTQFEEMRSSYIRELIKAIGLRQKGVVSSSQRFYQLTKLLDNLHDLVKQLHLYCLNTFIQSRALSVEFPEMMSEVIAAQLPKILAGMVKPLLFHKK

Row | SMILES | Ki [1] | Ki [2]
1 | COc1cccc2c1-c1ccc3c(c1C(c1cccc(OS(=O)(=O)C(F)(F)F)c1)O2)C(C)=CC(C)(C)N3 (stereo not shown) [Example 105] | 9 nM | > 10000 nM
2 | COc1cccc2c1-c1ccc3c(c1C(c1cccc(C4=NC(C)(C)CO4)c1)O2)C(C)=CC(C)(C)N3 (stereo not shown) [Example 106] | 62 nM | > 10000 nM
3 | CCOC(=O)c1cccc(C2Oc3cccc(OC)c3-c3ccc4c(c32)C(C)=CC(C)(C)N4)c1 (stereo not shown) [Example 107] | 215 nM | > 10000 nM
4 | COc1cccc2c1-c1ccc3c(c1C(c1cccc(C(=O)O)c1)O2)C(C)=CC(C)(C)N3 (stereo not shown) [Example 108, 3-(2,5-Dihydro-10-methoxy-2,2,4-trimethyl-1H-[1]benzopyrano[3,4-f]quinolin-5-yl)benzoic Acid] | 638 nM | > 10000 nM
5 | C=CCc1cc(C)cc(C2Oc3cccc(OC)c3-c3ccc4c(c32)C(C)=CC(C)(C)N4)c1 (stereo not shown) [Example 109, 2,5-Dihydro-10-methoxy-2,2,4-trimethyl-5-[3-methyl-5-(2-propenyl)phenyl]-1H-[1]benzopyrano[3,4-f]quinoline] | 6.1 nM | ≥ 10000 nM
6 | COc1cccc2c1-c1ccc3c(c1C(c1cc(C)cc(C(C)=O)c1)O2)C(C)=CC(C)(C)N3 (stereo not shown) [Example 110, 1-[3-(2,5-Dihydro-10-methoxy-2,2,4-trimethyl-1H-[1]benzopyrano[3,4-f]quinolin-5-yl)-5-methylphenyl]ethanone] | 5.6 nM | ≥ 10000 nM
7 | COc1cccc2c1-c1ccc3c(c1C(c1cc(C)cc(C(C)(C)O)c1)O2)C(C)=CC(C)(C)N3 (stereo not shown) [Example 111, 3-(2,5-Dihydro-10-methoxy-2,2,4-trimethyl-1H-[1benzopyrano3,4-f]quinolin-5-yl)5-trimethylbenzenemethanol] | 7.2 nM | ≥ 10000 nM
8 | COc1cccc2c1-c1ccc3c(c1C(c1cccc(-c4ccco4)c1)O2)C(C)=CC(C)(C)N3 (stereo not shown) [Example 112, 5-[3-(2-Furanyl)phenyl]-2,5-dihydro-10-methoxy-2,2,4-trimethyl-1H-[1]benzopyrano[3,4-f]quinoline] | 31 nM | ≥ 10000 nM
9 | COc1cccc2c1-c1ccc3c(c1C(c1cc(C)cc(N4CCCC4)c1)O2)C(C)=CC(C)(C)N3 (stereo not shown) [Example 113, 2,5-Dihydro-10-methoxy-2,2,4-trimethyl-5-[3-methyl-5-(1H-pyrrolidin-1-yl)phenyl]1H-[1]benzopyrano[3,4-f]quinoline] | 9.7 nM | ≥ 10000 nM
10 | C=CCNc1cc(C)cc(C2Oc3cccc(OC)c3-c3ccc4c(c32)C(C)=CC(C)(C)N4)c1 (stereo not shown) [Example 115] | 17 nM | ≥ 10000 nM
11 | COCCNc1cc(C)cc(C2Oc3cccc(OC)c3-c3ccc4c(c32)C(C)=CC(C)(C)N4)c1 (stereo not shown) [Example 116, 3-(2,5-Dihydro-10-methoxy-2,2,4-trimethyl-1H-[1]benzopyrano[3,4-f]quinolin-5-yl)-N-(2-methoxyethyl)-5-methylbenamine] | 7.2 nM | ≥ 10000 nM
12 | COc1cccc2c1-c1ccc3c(c1C(c1cc(C)cc(NC(=O)N(C)C)c1)O2)C(C)=CC(C)(C)N3 (stereo not shown) [Example 118, N′-[3-(2,5-Dihydro-10-methoxy-2,2,4-trimethyl-1H-1benzopyrano[3,4-f]quinolin-5-yl)-5-methylphenyl]-N,N-dimethylurea] | 43 nM | ≥ 10000 nM
13 | COc1cccc2c1-c1ccc3c(c1C(c1cccc(NCc4ccccc4)c1)O2)C(C)=CC(C)(C)N3 (stereo not shown) [Example 119, N-[3-(2,5-Dihydro-10-methoxy-2,2,4-trimethyl-1H-[1]benzopyrano[3,4-f]quinolin-5-yl)phenyl]benzenemethanamine] | 6.9 nM | ≥ 10000 nM
14 | COc1cccc2c1-c1ccc3c(c1C(=Cc1cc(Cl)cc(Cl)c1)O2)C(C)=CC(C)(C)N3 [Example 120, 5-[(3,5-dichlorphenyl)methylen]-2,5-dihydro-10-methoxy-2,2,4-trimethyl-1H-[1]benzopyrano[3,4-f]puinoline] | 30.3 nM | 6240 nM
